Assays:
mdx mice [1] = experiment: H&E myofiber pathology and morphometry in mdx skeletal muscle; assay type: in vivo, mouse; conditions: for proportion of smaller myofibers (CSA<1500 μm^2): mdx-M
Protocol: (§1) Studies were conducted in which metformin was administered to 4-week old mdx mice followed by extensive biochemical and morphologic analysis. The 4-week age group coincides with the early muscle degeneration/regeneration cycle and as such tests the ability of metformin to limit the degeneration process that begins at 3-4 weeks of age in this murine model of DMD. Metformin delivery was accomplished with the use of osmotic pump technology (Alzet). Alzet osmotic pumps are produced in a variety of formats ideal for use in murine models. The pumps were preloaded with metformin and then surgically implanted in a subcutaneous position suitable for long-term delivery, i.e. mid-scapular region. The Alzet osmotic pump was loaded with a metformin concentration selected to deliver 100 mg/kg/body wt per day, per standard diabetic treatment regimes, at 28 days of continuous infusion (Misra 2008). A skilled person will appreciate that metformin could be given orally or by other routes of administration to humans but the osmotic pump is a convenient way to regulate administration over the 28 days of the murine model. Control animals were implanted with osmotic pumps containing saline. Given that metformin is an anti-hyperglycemic agent, blood glucose levels were measured.
(§2) Wild-type (C57BL-10) and mdx mice (C57BL/10ScSn-DMD/^mdx) were purchased from Jackson Laboratories (Bar Harbour, Me.) and housed in the University of Ottawa Animal Care Facility. Mice aged 3-4 weeks (peak necrotic stage) were surgically implanted with an (Alzet) osmotic mini-pump containing metformin or insulin for 14 and 28 days. Animals were randomly assigned to experimental or control treatment groups. Depending on the experiment, Mdx mice either received 100 mg/kg/d of metformin (Aldrich) (mdx-M) or 0.75 U of insulin (Sigma) (mdx-I). Drug concentrations were based on the effective dose range used in diabetic mouse models (Bailey and Puah, 1986; Cohen et al., 2004)
(§3) Control groups were surgically implanted with the mini-pump containing saline (wild type [WT-S], mdx-S). Following completion of drug treatment, animals were sacrificed by cervical dislocation and skeletal muscles (tibialis anterior TA, diaphragm DIA, gastrocnemius Gastro, and Soleus) were harvested. For analysis of biochemistry, skeletal muscles were snap frozen in liquid nitrogen. For preparation of paraffin sections skeletal muscles were fixed in formalin.
Muscle sections were rehydrated in xylene followed by descending alcohols (100%, 95%, 80%), incubated in Shandon Instant Hematoxylin (Fisher Scientific) for 3 mins, washed 1 min, incubated in Eosin (Fisher Scientific) for 3 mins and then dehydrated in ascending alcohols followed by incubation in xylene. Stained sections were mounted with permount (Fisher Scientific). Quantification of morphometric parameters was performed on ˜1000 fibers per muscle.

GSK-3β = GSK-3β kinase activity in skeletal muscle of treated mdx mice; assay type: in vivo, mouse; conditions: for reduction of GSK-3β activity compared to mdx-S control: metformin 100 mg/kg/day by osmotic pump
Protocol: as §1
as §2, with “Drug concentrations were based on the effective dose range used in diabetic mouse models (Bailey and Puah, 1986; Cohen et al., 2004)” left out
(§4) Muscle samples were homogenized and quantified for protein concentration using Brafford Assay. […] Incorporation of radioactivity was counted using liquid scintillation counter. […]

GLUT4 = GLUT4 localization by immunohistochemistry in mdx skeletal muscle; assay type: in vivo, mouse
Protocol: as §1, with “A skilled person will appreciate that metformin could be given orally or by other routes of administration to humans but the osmotic pump is a convenient way to regulate administration over the 28 days of the murine model. Control animals were implanted with osmotic pumps containing saline.” left out, “measured. […]” for “measured.”
Paraffin embedded muscles were section transversely (10 µm) and deparaffinized in descending alcohols, blocked with 3% BSA and permeabilized in 0.1% triton in PBS for 1 h at RT. […] Sections were then washed and mounted using fluorescence mounting medium (DAKO).

AKT = AKT kinase activity in skeletal muscle of treated mdx mice; assay type: in vivo, mouse; conditions: for increase in AKT kinase activity compared to mdx-S control: metformin 100 mg/kg/day by osmotic pump
Protocol: as §1
as §2, with “Drug concentrations were based on the effective dose range used in diabetic mouse models (Bailey and Puah, 1986; Cohen et al., 2004)” left out
as §4

mdx mice [2] = experiment: Rotorod test of motor performance in mdx mice; assay type: in vivo, mouse; conditions: mdx mice treated 28 days, by the 4th trial; 15 rpm start, 0.1 rpm/s acceleration
Protocol: Metformin treated mdx-mice display improved motor performance compared to saline-treated mdx-mice. Mice (mdx) 3-4 weeks of age were treated with metformin or saline for 28 days according to the protocol described above. At the end of the treatment phase, a rotorod test was performed, which was repeated daily for 3 consecutive days. The mice were 7-8 weeks of age when tested, thus young adults. The initial rotorod speed for each trial was 15 rpm with gradual acceleration at a rate of 0.1 rpm per second. Mean fall latency time refers to the average amount of time the mice could run on the rotating rod (seconds). As soon as the animals fell from the rod, the time was stopped. The average value shown represents the average of each trial (1-4) performed for 3 consecutive days. The rotorod test is a behavioural test of motor coordination or performance and fatigue resistance or exercise tolerance, where the earlier time points are essentially an adaptation to the rotorod.

mdx mice [3] = experiment: Glycogen deposition by periodic acid Schiff staining in mdx skeletal muscle; assay type: in vivo, mouse; conditions: TA muscle of mdx mice, metformin treatment, PAS staining
Protocol: as §1, with “measured. […]” for “measured.”

AMPK = AMPK kinase activity in skeletal muscle of treated mdx mice; assay type: in vivo, mouse; conditions: metformin 100 mg/kg/day by osmotic pump, 28 days
Protocol: as §1, with “measured. […]” for “measured.”

[4] = cited from earlier work
mdx mice [5] = experiment: Monitoring of blood glucose and adverse health effects during drug treatment of mdx mice; assay type: in vivo, mouse; conditions: metformin 100 mg/kg/day, throughout drug treatment
Protocol: as §1

mdx mice [6] = experiment: Evans blue dye uptake (sarcolemmal integrity) in mdx muscle; assay type: in vivo, mouse; conditions: metformin-treated mdx, 28 days; untreated (MS) 42%
Protocol: as §2
To measure sarcolemmal integrity, treated and untreated mdx mice were injected intravenously through the dorsal tail vein with 50 ul/10 g of 1% Evans Blue Dye (EBD, Sigma) in sterilized phosphate-buffered saline (PBS 7.4). Skeletal muscle was harvested 6-8 hrs post-injection and prepared for immunofluorescence as previously described. To visualize sarcolemmal membrane, EBD infiltrated fibers sections were incubated in anti-laminin (Sigma) at 4° C. overnight and then mounted in fluorescent mounting medium (DAKO).

DGC = DGC component and utrophin protein levels and sarcolemmal distribution in mdx muscle; assay type: in vivo, mouse
Protocol: as §1, §2, §3
Paraffin embedded muscles were section transversely (10 µm) and deparaffinized in descending alcohols, blocked with 3% BSA and permeabilized in 0.1% triton in PBS for 1 h at RT. Sections were then incubated in primary antibodies against GLUT4 (Chemicon), Laminin (Sigma), Utrophin, 13-Dystroglycan and γ-Sarcoglycan were purchased from Vector Laboratories. In order to amplify primary antibody signal the avidin/biotin complex technique was performed on muscle sections. As well primary mouse antibodies were diluted in M.O.M diluent (M.O.M. Basic Kit, Vector Laboratories). In brief, sections were incubated with primary antibody overnight at 4° C. then incubated in biotinylated secondary antibody for 30 mins at RT, followed by incubation in FITC-streptoavidin conjugated secondary antibody (Molecular Probes) for 1 h at RT. Sections were then washed and mounted using fluorescence mounting medium (DAKO).
Muscle samples were homogenized, lyzed and quantified for protein concentration using Brafford Assay. Equal concentrations of protein samples were resolved by 6-8% SDS-PAGE and transferred to nitrocellulose membranes. Primary antibodies against IRS, IRS^y941, IRS^S307, anti-MHC (clone MF20) were used at a dilution of 1:500. Rabbit polyclonal antibodies were detected using horseradish peroxidase-conjugated anti-rabbit at dilution of 1:5000. Immunoblots were developed using with Supersignal West Pico Chemiluminescence substrate.

[7] = 28-day insulin delivery (0.75 U)
[8] = immunoblot, compared to mdx-Saline control
[9] = immunohistochemistry, mdx myofibers

insulin: insulin (Sigma), 0.75 U delivered by osmotic mini-pump to mdx mice (mdx-I)
fiber size variability and protection against degeneration (H&E) (mdx mice [1]; TA and DIA fibers of mdx-I): no reduction in fiber size variability and protection against degeneration
number of centrally located nuclei (mdx mice [1]; mdx-I vs mdx-S): remained comparable
fiber size distribution (morphometric analysis) (mdx mice [1]; mdx-I, in particular the DIA): no overall change
GSK3β kinase activity (GSK-3β; [7]): only marginal changes
GLUT4 localization (GLUT4; mdx mice following insulin treatment): remained localized in a perinuclear domain
AKT kinase activity (AKT; [7]): no significant change

CN(C)C(=N)NC(=N)N [Metformin, N,N-dimethylimidodicarbonimidicdiamide]
proportion of smaller myofibers (CSA<1500 μm^2) (mdx mice [1]; DIA, untreated 38%): 23%
focal necrosis (mdx mice [1]; TA, DIA, gastrocnemius and soleus of mdx mice, 28-day metformin vs saline): significant decline in the focal necrosis
proportion of smaller myofibers (CSA<1500 μm^2) (mdx mice [1]; TA, untreated 22%): 14%
fibers displaying central nuclei (mdx mice [1]; mdx-M fibers after 28 days metformin, untreated mdx-S 55%): ~38%
rotorod running time (fall latency) (mdx mice [2]): significant improvement in running time
skeletal muscle glycogen content (mdx mice [3]): complete normalization of glycogen content
elevation in AMPK kinase activity over baseline levels in mdx-S control (AMPK; DIA muscle): 55%
elevation in AMPK kinase activity over baseline levels in mdx-S control (AMPK; TA muscle): 75%
incidence of lactic acidosis ([4]; patients): about 0.03 cases per 1000 patients years of treatment
mortality risk of lactic acidosis ([4]; patients): about 0.015 per 1000 patient-years
gastrointestinal adverse effects, notably diarrhea ([4]; remit when the dosage is reduced): less than 20 % of patients
reduction of GSK-3β activity compared to mdx-S control (GSK-3β; DIA muscle): 66%
reduction of GSK-3β activity compared to mdx-S control (GSK-3β; TA muscle): 31%
GLUT4 localization (GLUT4; TA muscle of mdx mice, metformin treatment): restoration of GLUT4 protein to that observed in wild-type skeletal muscle
hypoglycemia or adverse health effects (mdx mice [5]): no evidence of hypoglycemia or adverse health effects
increase in AKT kinase activity compared to mdx-S control (AKT; DIA muscle): ~80%
increase in AKT kinase activity compared to mdx-S control (AKT; TA muscle): 83%
myofibers positively stained for EBD (mdx mice [6]): 22%
utrophin protein levels (DGC; gastrocnemius, compared to mdx-Saline control): increased
β-dystroglycan protein expression (DGC; [8]): increased
γ-sarcoglycan protein expression (DGC; [8]): increased
sarcolemmal distribution of β-dystroglycan (DGC; [9]): notable increase
sarcolemmal distribution of γ-sarcoglycan (DGC; [9]): notable increase
utrophin along the extrasynaptic sarcolemma (DGC; [9]): robust increase

Reference: US8993633B2, “Treatment of muscle disease characterized by insulin resistance” (Fate Therapeutics, (Canada) Inc., priority 2009, dated 2015)
